Test [1] concerns the target integrin receptors on U87MG glioblastoma cells. Put plainly: flow cytometry, direct binding of AF488-labelled protein to U87MG cells, 3 h at 4 C. In general terms: A flow cytometer gives signals particle by particle.
Test [2] concerns U87MG cells. Put plainly: Direct binding of Alexa Fluor 488-labeled proteins to U87MG cells (flow cytometry). The conditions noted are these: direct binding of AF488-labeled protein to U87MG cells, 3 h at 4° C. The method, then:
(§1) The binding affinity of the constructs described in Example 1 were measured using U87MG glioblastoma cells. Drug-free protein affinities were measured directly using Alexa Fluor 488-conjugaed proteins and drug conjugates were measured via a competition binding assay displacing Alexa Fluor 488-labeled K. All constructs tested bound to U87MG cells with low-nanomolar affinity (FIG. 9A-B).
(§2) U87MG cells were detached using Enzyme-Free Cell Dissociation Buffer (Gibco). Next, 4×10^4 cells were incubated with varying concentrations (0.01-200 nM) of Alexa Fluor 488 labeled proteins in Integrin Binding Buffer (IBB; 25 mM Tris pH 7.4, 150 mM NaCl, 2 mM CaCl2), 1 mM MgCl2, 1 mM MnCl2, and 0.1% bovine serum albumin (BSA)) for 3 h at 4° C. to minimize internalization. Cells were pelleted and washed twice with 800 μL of PBSA (phosphate buffered saline containing 0.1% bovine serum albumin) and the fluorescence of remaining surface-bound protein was measured by flow cytometry using a Guava EasyCyte 8HT instrument (EMD Millipore). Resulting data were evaluated using FlowJo software (TreeStar Inc) and equilibrium dissociation constants (Kd) were determined using Prism software (GraphPad). Error bars represent the standard deviation of experiments performed in triplicate.

The subject of test [3] is U87MG cells. Put plainly: Measurement of cellular internalization of AF488-labeled proteins. It counts as cell-based. The settings on record: AF488-labeled protein, 37° C., 4 h, surface signal quenched. The method, then:
The cleavage of the Val-Cit-PAB linker and the subsequent release and mechanism of action of MMAE are dependent upon intracellular delivery. Thus, it was important to validate that each construct internalized efficiently. Internalization was measured by incubating Alexa Fluor 488-conjugated proteins with cells at 37° C. After a 4 h incubation, surface-bound protein was quenched using an anti-AF488 antibody, that binds any exposed fluorophores.
U87MG cells were seeded in 24-well plates (Corning) at a density of 5×10^4 cells per well. After allowing cells to settle for >4 h, media was replaced with fresh media containing 200 nM of Alexa Fluor 488-labeled proteins and supplemented with 1 mM MnCl2. Cells were then incubated at 37° C. for 4 h. Cells were washed with 500 μL of PBS and detached using 20 μL of 0.05% trypsin/EDTA. After neutralizing trypsin and transferring each well into an Eppendorf tube, cells were washed with 800 μL of cold PBSA. Next, cells were pelleted and resuspended on ice in 50 μL of a 1:200 dilution of anti-Alexa Fluor 488 antibody (Invitrogen) to quench surface-bound protein. Cells were washed again with 800 μL of PBSA and the fluorescence of internalized protein was measured by flow cytometry as described above.

Test [4] relates to U87MG hip xenografts. The test can be described thus: Therapeutic efficacy study, once weekly for four weeks, tumors implanted with Matrigel. It counts as in vivo, Nu/Nu mice. The conditions noted are these: once weekly for 4 weeks. The method, then: To further investigate each compound, several changes were made to the experimental design. Because of the KDC's rapid systemic clearance, a significant portion of the injected dose is likely lost and the ˜0.6 mg/kg dose was therefore increased substantially. Because dosages for chemotherapeutics are conventionally determined as mass of chemotherapeutic per patient body surface area, a more clinically relevant comparison of equal mass was selected over an equimolar comparison. Next, a once-per-week dosing regimen was selected to coincide with realistic clinical dosing considerations. Finally, tumors were implanted with Matrigel matrix to increase tumor growth and with only 2.5×10^6 cells per injection to decrease initial tumor necrosis. Mice bearing U87MG hip xenografts were equally distributed into the following treatment groups with intravenous injections given once weekly for 4 weeks: KDC, KFDC, KADC, unconjugated proteins, or a PBS control. Each drug conjugate was also evaluated at a low dose and a high dose.
For tumor cell implantation, female Nu/Nu mice (Charles River Laboratory) were anesthetized with 2.5% isoflurane by inhalation with a flow rate of 1 L/min. A volume of 200 μL of 50/50 PBS/Matrigel (Corning), containing 2.5×10^6 U87MG cells, was injected subcutaneously into the right flank. Tumors were allowed to grow for 7 days until reaching a size of approximately 35 mm^2. For therapeutic efficacy studies, mice were binned into experimental groups to ensure equivalent average tumor sizes and starting body weights across all groups.
Mice bearing U87MG flank xenografts, as described above, were injected intravenously with PBS, KDC, KFDC, KADC, or controls proteins. Treatments were administered once per week for four weeks. Tumors were measured three times per week using digital calipers and animal weights were recorded on each dosing day to monitor for potential weight loss as a measure of compound toxicity. Tumor area was calculated as the longest axis of the tumor multiplied by the perpendicular axis. Euthanasia criteria were defined as a tumor area greater than 150 mm^2 or a loss of 20% body weight.

The subject of test [5] is U87MG cells. Put plainly: Indirect (competition) binding assay displacing Alexa Fluor 488-labeled knottin. The settings on record: competing off 1 nM AF488-2.5F on U87MG cells. As for the experimental part:
as §1
as §2, with “1 nM” for “varying concentrations (0.01-200 nM)”, “knottin as a competitor and varying concentrations (0.01-500 nM) of KDC, KFDC, or KADC” for “proteins”, “IBB” for “Integrin Binding Buffer (IBB; 25 mM Tris pH 7.4, 150 mM NaCl, 2 mM CaCl2), 1 mM MgCl2, 1 mM MnCl2, and 0.1% bovine serum albumin (BSA))”

Where no end group is shown, it is not given here.

As to “knottin-Fc fusion (KFc): EETI 2.5F genetically fused to a human IgG1 Fc domain, Alexa Fluor 488-labeled”, the Kd (commonly the concentration at which binding is half-saturated) in test [1] was found to be 2.5 nM.

On to “KFc: EETI 2.5F genetically fused to a human IgG1 Fc domain (GCPRPRGDNPPLTCSQDSDCLAGCVCGPNGFCG; ends and bridges not checked; also: fused to human IgG1 Fc domain (dimerising))”, for which binding in test [2] was put at a Kd of 2.5 nM. In test [3], the internalization entry was “from least to greatest, K, KFc, then KAb”. For the same molecule, the “tumor growth with unconjugated protein” value in test [4] is listed as “indistinguishable from PBS control mice”. The Ki (commonly the dissociation constant of the complex between target and ligand, obtained from inhibition or displacement) in test [5] was 1.2 nM.

B1: knottin-Ab fusion (KAb): EETI 2.5F genetically fused to the N-terminus of a full-length human IgG1 antibody against an irrelevant target (anti-FITC or … (peptide, part only; not given: carrier IgG1 antibody chains, part only)
chain, part: GCPRPRGDNPPLTCSQDSDCLAGCVCGPNGFCG
modifications: cysteine pairing not given here; also: genetic fusion to N-terminus of full-length human IgG1 antibody, Alexa Fluor 488 label, site not given here
Take B1: in test [1], the Kd was 2.3 nM.
